Assays:
lambsquarters = experiment: Test Example 5: herbicidal effect by foliage application, plastic box (Table 20, symbol O); assay type: in vivo, lambsquarters (Chenopodium album); details: amount of applied herbicide 320 g/ha; foliage application after 14-day growth; evaluated three weeks after application
Method in brief: (§1)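 Sow seeds spot-wise in sterilized diluvial soil; cover with ~1.5 cm soil. Grow 14 days in greenhouse, 25° C. to 30° C. Spray foliage with emulsion diluted to predetermined amount. Rate effect after 3 weeks.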

redroot pigweed = experiment: Test Example 5: herbicidal effect by foliage application, plastic box (Table 20, symbol N); assay type: in vivo, redroot pigweed (Amaranthus retroflexus); details: amount of applied herbicide 320 g/ha; foliage application after 14-day growth; evaluated three weeks after application
Method in brief: as §1

windgrass = experiment: Test Example 5: herbicidal effect by foliage application, plastic box (Table 20, symbol L); assay type: in vivo, windgrass (Apera spica-venti); details: amount of applied herbicide 320 g/ha; foliage application after 14-day growth; evaluated three weeks after application
Method in brief: as §1

persian speedwell = experiment: Test Example 5: herbicidal effect by foliage application, plastic box (Table 20, symbol R); assay type: in vivo, Persian speedwell (Veronica persica); details: amount of applied herbicide 320 g/ha; foliage application after 14-day growth; evaluated three weeks after application
Method in brief: as §1

velvetleaf = experiment: Test Example 5: herbicidal effect by foliage application, plastic box (Table 20, symbol M); assay type: in vivo, velvetleaf (Abutilon theophrasti); details: amount of applied herbicide 320 g/ha; foliage application after 14-day growth; evaluated three weeks after application
Method in brief: as §1

barnyard grass [1] = experiment: Test Example 3: herbicidal effect by foliage application, Wagner pot (Table 18, symbol H); assay type: in vivo, barnyard grass (Echinochloa crus-galli); details: 320 g/ha
Method in brief: (§2)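 Plants were sown in alluvial soil held under 0.1–0.5 cm standing water and grown 14 days in a greenhouse at 25–30 °C. An emulsifiable formulation, water-diluted to the set dose, was then sprayed onto the foliage, and effects were scored three weeks later using previously defined criteria.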

southern crabgrass = experiment: Test Example 5: herbicidal effect by foliage application, plastic box (Table 20, symbol F); assay type: in vivo, southern crabgrass (Digitaria ciliaris); details: amount of applied herbicide 320 g/ha; foliage application after 14-day growth; evaluated three weeks after application
Method in brief: as §1

wild oat = experiment: Test Example 5: herbicidal effect by foliage application, plastic box (Table 20, symbol I); assay type: in vivo, wild oat (Avena fatua); details: amount of applied herbicide 320 g/ha; foliage application after 14-day growth; evaluated three weeks after application
Method in brief: as §1

rice flat sedge = experiment: Test Example 3: herbicidal effect by foliage application, Wagner pot (Table 18, symbol E); assay type: in vivo, rice flat sedge (Cyperus iria); details: 320 g/ha
Method in brief: as §2

green foxtail = experiment: Test Example 5: herbicidal effect by foliage application, plastic box (Table 20, symbol G); assay type: in vivo, green foxtail (Setaria viridis); details: amount of applied herbicide 320 g/ha; foliage application after 14-day growth; evaluated three weeks after application
Method in brief: as §1

barnyard grass [2] = experiment: Test Example 5: herbicidal effect by foliage application, plastic box (Table 20, symbol H); assay type: in vivo, barnyard grass (Echinochloa crus-galli); details: amount of applied herbicide 320 g/ha; foliage application after 14-day growth; evaluated three weeks after application
Method in brief: as §1

Italian ryegrass = experiment: Test Example 5: herbicidal effect by foliage application, plastic box (Table 20, symbol K); assay type: in vivo, Italian ryegrass (Lolium multiflorum); details: amount of applied herbicide 320 g/ha; foliage application after 14-day growth; evaluated three weeks after application
Method in brief: as §1

chickweed = experiment: Test Example 5: herbicidal effect by foliage application, plastic box (Table 20, symbol P); assay type: in vivo, common chickweed (Stellaria media); details: amount of applied herbicide 320 g/ha; foliage application after 14-day growth; evaluated three weeks after application
Method in brief: as §1

Chinese sprangletop = experiment: Test Example 3: herbicidal effect by foliage application, Wagner pot (Table 18, symbol D); assay type: in vivo, chinese sprangletop (Leptochloa chinensis); details: 320 g/ha
Method in brief: as §2

blackgrass = experiment: Test Example 5: herbicidal effect by foliage application, plastic box (Table 20, symbol J); assay type: in vivo, blackgrass (Alopecurus myosuroides); details: amount of applied herbicide 320 g/ha; foliage application after 14-day growth; evaluated three weeks after application
Method in brief: as §1

SMILES	Herbicidal effect by foliage application, O: lambsquarters (lambsquarters)	Herbicidal effect by foliage application, N: redroot pigweed (redroot pigweed)	Herbicidal effect by foliage application, L: windgrass (windgrass)	Herbicidal effect by foliage application, R: persian speedwell (persian speedwell)	Herbicidal effect by foliage application, M: velvetleaf (velvetleaf)	herbicidal effect on barnyard grass (H) (barnyard grass [1])	Herbicidal effect by foliage application, F: southern crabgrass (southern crabgrass)	Herbicidal effect by foliage application, I: wild oat (wild oat)	herbicidal effect on rice flat sedge (E) (rice flat sedge)	Herbicidal effect by foliage application, G: green foxtail (green foxtail)	Herbicidal effect by foliage application, H: barnyard grass (barnyard grass [2])	Herbicidal effect by foliage application, K: Italian ryegrass (Italian ryegrass)	Herbicidal effect by foliage application, P: chickweed (chickweed)	herbicidal effect on Chinese sprangletop (D) (Chinese sprangletop)	Herbicidal effect by foliage application, J: blackgrass (blackgrass)
CCSc1cccc(-c2sc3c(C)cccc3c2-c2c(O)c(C)nn(C)c2=O)c1 [4-122]	4 (Herbicidal rate of 70% or more and less than 90%)	4 (Herbicidal rate of 70% or more and less than 90%)	4 (Herbicidal rate of 70% or more and less than 90%)	4 (Herbicidal rate of 70% or more and less than 90%)	4 (Herbicidal rate of 70% or more and less than 90%)	5 (Herbicidal rate of 90% or more (almost completely withered))	3 (Herbicidal rate of 40% or more and less than 70%)	0 (Herbicidal rate of 5% or less (almost no effect))	4 (Herbicidal rate of 70% or more and less than 90%)	1 (Herbicidal rate of 5% or more and less than 20%)	1 (Herbicidal rate of 5% or more and less than 20%)	4 (Herbicidal rate of 70% or more and less than 90%)	5 (Herbicidal rate of 90% or more (almost completely withered))	0 (Herbicidal rate of 5% or less (almost no effect))	1 (Herbicidal rate of 5% or more and less than 20%)
Cc1nn(C)c(=O)c(-c2c(-c3ccc(C(C)C)cc3)sc3cc(F)c(F)cc23)c1O [5-005]	0 (Herbicidal rate of 5% or less (almost no effect))	3 (Herbicidal rate of 40% or more and less than 70%)	0 (Herbicidal rate of 5% or less (almost no effect))	4 (Herbicidal rate of 70% or more and less than 90%)	3 (Herbicidal rate of 40% or more and less than 70%)	3 (Herbicidal rate of 40% or more and less than 70%)	0 (Herbicidal rate of 5% or less (almost no effect))	0 (Herbicidal rate of 5% or less (almost no effect))	4 (Herbicidal rate of 70% or more and less than 90%)	0 (Herbicidal rate of 5% or less (almost no effect))	0 (Herbicidal rate of 5% or less (almost no effect))	0 (Herbicidal rate of 5% or less (almost no effect))	5 (Herbicidal rate of 90% or more (almost completely withered))	5 (Herbicidal rate of 90% or more (almost completely withered))	0 (Herbicidal rate of 5% or less (almost no effect))
CCCC(=O)Oc1c(C)nn(C)c(=O)c1-c1c(-c2ccc(C(C)C)cc2)sc2cc(F)c(F)cc12 [5-006]	3 (Herbicidal rate of 40% or more and less than 70%)	3 (Herbicidal rate of 40% or more and less than 70%)	0 (Herbicidal rate of 5% or less (almost no effect))	1 (Herbicidal rate of 5% or more and less than 20%)	3 (Herbicidal rate of 40% or more and less than 70%)	4 (Herbicidal rate of 70% or more and less than 90%)	0 (Herbicidal rate of 5% or less (almost no effect))	0 (Herbicidal rate of 5% or less (almost no effect))	3 (Herbicidal rate of 40% or more and less than 70%)	0 (Herbicidal rate of 5% or less (almost no effect))	0 (Herbicidal rate of 5% or less (almost no effect))	0 (Herbicidal rate of 5% or less (almost no effect))	4 (Herbicidal rate of 70% or more and less than 90%)	1 (Herbicidal rate of 5% or more and less than 20%)	0 (Herbicidal rate of 5% or less (almost no effect))
Cc1nn(C)c(=O)c(-c2c(-c3ccc(C#N)cc3)sc3cc(Cl)c(Cl)cc23)c1O [5-049]	4 (Herbicidal rate of 70% or more and less than 90%)	5 (Herbicidal rate of 90% or more (almost completely withered))	3 (Herbicidal rate of 40% or more and less than 70%)	0 (Herbicidal rate of 5% or less (almost no effect))	1 (Herbicidal rate of 5% or more and less than 20%)	3 (Herbicidal rate of 40% or more and less than 70%)	0 (Herbicidal rate of 5% or less (almost no effect))	0 (Herbicidal rate of 5% or less (almost no effect))	0 (Herbicidal rate of 5% or less (almost no effect))	2 (Herbicidal rate of 20% or more and less than 40%)	0 (Herbicidal rate of 5% or less (almost no effect))	0 (Herbicidal rate of 5% or less (almost no effect))	0 (Herbicidal rate of 5% or less (almost no effect))	0 (Herbicidal rate of 5% or less (almost no effect))	0 (Herbicidal rate of 5% or less (almost no effect))

Source: patent US20230085307A1, “PYRIDAZINONE COMPOUND AND HERBICIDE” (NISSAN CHEMICAL CORPORATION, priority 2019, published 2023)
